Data from patent US20160291027A1, “METHODS FOR […] ABILITY OF A Z[…] COMPOUND TO TREAT CANCER” (Eisai R&D Management Co., Ltd., priority 2007, published 2016).

Columns and labels:
AU-565 = test: Western blotting of response markers; type: cell-based; details: resistant cell line AU-565; 24 hours; concentration dependent
Experimental: (§1) In order to identify markers that could serve as response markers for determining whether a cancer in a subject is sensitive to treatment with a zearalenone analog compound, phospho-ERK, total ERK protein, phospho-pRB, total pRB, and Cyclin D1 protein levels in a cell line sensitive to Compound 106 (e.g., SK-MEL-28) and cell lines resistant to Compound 106 (e.g., AU-565) were examined by Western blotting. 2×10^6 cancer cells (SK-MEL-28 and AU-565) were plated into a 100 mm dish and incubated for two days. Test compound, e.g., Compound 106, was then added to each dish for 24 hours at a concentration ranging from […] to […]. Culture medium was added to the cells as a control. SK-MEL-28 and AU-565 cell lysate proteins were subjected to SDS-PAGE under reducing condition and immunoblotted with an antibody against phospho-ERK1/2 (catalog #9101, Cell Signaling Technology®, Danvers, Mass.), phospho-pRB (catalog #9307, Cell Signaling Technology®, Danvers, Mass.), or Cyclin D1 (catalog #sc-8396, Santa Cruz, Calif.). ERK1 (catalog #sc-93, Santa Cruz, Calif.) or pRb (catalog #sc-102, Santa Cruz, Calif.) antibody was used for the detection of the total amount of protein.

SK-MEL-28 = test: Western blotting of response markers; type: cell-based; details: sensitive cell line SK-MEL-28, 24 hours
Experimental: as §1

MDA-MB-435 = test: MTS cell growth inhibition assay; type: cell-based; details: Homo sapiens, 96 h, MDA-MB-435 breast, BRAF mutated, four days
Experimental: (§2) Cell growth inhibition following treatment with a zearalenone analog compound, Compound 106, was assessed in a panel of cancerous cell lines from different tissue types, which carry mutations in BRAF and/or RAS. A panel of 21 cell lines was tested with varying concentrations of Compound 106. All assays were performed in a 96 well format. Cell viability was assessed after four days following treatment. Cell viability was assessed with a MTS Assay (CellTiter96®AqueousOne Solution Cell Proliferation Assay, Promega) in a panel of cell lines carrying no mutations or various BRAF (V600E) and/or RAS mutations to determine the effect of BRAF and RAS genotype on drug sensitivity.

SK-MEL-3 = test: MTS cell growth inhibition assay; type: cell-based; details: Homo sapiens, SK-MEL3, 96 h, SK-MEL-3 melanoma, BRAF mutated, four days
Experimental: as §2

SF-295 = test: CellTiter-Glo cell growth assay; type: cell-based, human; details: SF-295, BRAF wild-type glioblastoma, elevated pAKT; 10 μmol/L to 0.0003 μmol/L
Experimental: (§3) In order to determine whether Compound 106 resistance is associated with constitutive AKT phosphorylation as a result of activation of the PI3K signaling pathway, a panel of 10 BRAF mutated melanoma cell lines and a BRAF wild-type glioblastoma cancer cell line, SF-295, were tested using different concentrations of Compound 106 ranging from 10 μmol/L to 0.0003 μmol/L.
(§4) All assays were performed in a 96 well format. For these cell lines, protein lysates were collected in a separate experiment, which allowed for the evaluation of the constitutive level of AKT phosphorylation and correlation between the level of phosphorylated AKT (pAKT) and Compound 106 sensitivity. Cell growth was assessed using CellTiter-Glo® Luminescent Cell Viability Assay (Promega). Phosphorylated AKT protein was analyzed by Western blotting, with total AKT being used as a loading control.

RPMI-7951 = test: CellTiter-Glo cell growth assay; type: cell-based; details: RPMI-7951, BRAF mutated melanoma, elevated pAKT; 10 μmol/L to 0.0003 μmol/L
Experimental: as §3, §4

[1] = system: SF-295 human glioblastoma xenografts; test: Plasma human IL-8 (ELISA) in tumor bearing mice; type: in vivo; details: SF-295 tumor bearing mice; 40 mg/kg i.v. QD×4; 24 hours after the fourth dosing
Source text: (§5) In order to determine whether plasma IL-8 levels could be measurable in tumor xenograft bearing mice and whether plasma IL-8 levels change after treatment with Compound 106, COLO-829 and UACC-62 melanoma xenografts were established as Compound 106 sensitive xenografts in female nude mice. SF-295 human glioblastoma (BRAF wild-type) xenografts were established as an Compound 106 resistant tumor model in female nude mice. Female athymic NU/NU mice were inoculated subcutaneously with COLO-829, UACC-62 human melanoma cancer cells, or SF-295 human glioblastoma cells. Those animals that developed tumors of approximately 250 mm^3 were selected and randomized to two groups. The experiment consisted of a vehicle-treated and 40 mg/kg Compound 106-treated groups of 8 mice per group on the first day of treatment. Compound 106 was administered intravenously (i.v.) on a QD×4 (every day for a total of four injections) dosing schedule. The subcutaneous tumor volumes were measured on the first day of treatment and 24 hours after the fourth treatment. Heparinized blood was collected from these mice 24 hours after the fourth treatment with Compound 106 using a cardiac puncture, and plasma was isolated. The levels of human IL-8 in the plasma were determined by ELISA.

[2] = system: UACC-62 melanoma xenografts; test: Plasma human IL-8 (ELISA) in tumor bearing mice; type: in vivo; details: UACC-62 xenograft; 40 mg/kg i.v. QD×4; 24 hours after the fourth dosing
Source text: as §5

[3] = system: COLO-829 melanoma xenografts; test: Plasma human IL-8 (ELISA) in tumor bearing mice; type: in vivo; details: COLO-829 xenograft; 40 mg/kg i.v. QD×4; 24 hours after the fourth dosing
Source text: as §5

CCNc1cc(O)c2c(c1)/C=C/C[C@H](O)[C@H](O)C(=O)/C=C\[C@@H](C)[C@H](C)OC2=O [Compound 106]
protein levels of phospho-ERK (AU-565): inhibited
Protein levels of p27 (SK-MEL-28): increased
phospho-pRB protein (SK-MEL-28): decrease
protein levels of Cyclin D1 (SK-MEL-28): decreased
protein levels of phospho-ERK (SK-MEL-28; concentration dependent): inhibited
IC50 (MDA-MB-435): < 0.1 µM
IC50 (SK-MEL-3): < 0.1 µM
Sensitivity of cell line (SF-295): resistant
Sensitivity of cell line (RPMI-7951): resistant
Plasma IL-8 levels [1]: did not change
Plasma IL-8 levels [2]: almost completely blocked
Plasma IL-8 levels [3]: almost completely blocked
